Measured values published in patent US4565699A, “Composition of matter and process” (The Upjohn Company, priority 1983, dated 1986).
Values after ≈ are worked out from the molar mass of the structure shown. Like-named read-outs stand apart in the source and are kept apart here.

What was measured:
Citrobacter freundii = experiment: MIC, standard tube dilution assay, BHI medium; format: cell-based; details: UC3507, UC 3507, read-out: Minimum inhibitory concentration
Text: (§1) The assay is a standard tube dilution assay using BHI (Brain Heart Infusion medium-Difco). "UC" is a registered trademark of The Upjohn Company Culture Collection.

Enterobacter cloacae = experiment: MIC, standard tube dilution assay, BHI medium; format: cell-based; details: UC9382, UC 9382, read-out: Minimum inhibitory concentration
Text: as §1

Escherichia coli = experiment: MIC, standard tube dilution assay, BHI medium; format: cell-based; details: UC311, UC 311, read-out: Minimum inhibitory concentration
Text: as §1

Haemophilus influenzae = experiment: MIC, standard tube dilution assay, BHI medium; format: cell-based
Text: as §1

Klebsiella pneumoniae = experiment: MIC, standard tube dilution assay, BHI medium; format: cell-based; details: UC58, UC 58, read-out: Minimum inhibitory concentration
Text: as §1

Pseudomonas aeruginosa = experiment: MIC, standard tube dilution assay, BHI medium; format: cell-based
Text: as §1

Serratia marcescens = experiment: MIC, standard tube dilution assay, BHI medium; format: cell-based; details: UC6888, UC 6888, read-out: Minimum inhibitory concentration
Text: as §1

Staphylococcus aureus = experiment: MIC, standard tube dilution assay, BHI medium; format: cell-based
Text: as §1

Streptococcus faecalis = experiment: MIC, standard tube dilution assay, BHI medium; format: cell-based; details: Enterococcus faecalis, UC694; UC 694; read-out: Minimum inhibitory concentration
Text: as §1

Streptococcus pneumoniae = experiment: MIC, standard tube dilution assay, BHI medium; format: cell-based; details: UC41, UC 41, read-out: Minimum inhibitory concentration
Text: as §1

Streptococcus pyogenes = experiment: MIC, standard tube dilution assay, BHI medium; format: cell-based; details: UC152, UC 152, read-out: Minimum inhibitory concentration
Text: as §1

Gram-positive bacteria = experiment: Antimicrobial spectrum; format: cell-based
Text: as §1

Solubilities = format: physicochemical

SMILES: C=C/C(C)=C/C1(CC)SC(=O)C(CC(N)=O)=C1O (stereo not shown) [U-68,204]
- MIC (Citrobacter freundii): > 600 mg/L
- MIC (Enterobacter cloacae): > 600 mg/L
- MIC (Escherichia coli): 600 mg/L (≈ 2240 µM)
- MIC (Haemophilus influenzae; UC6482, UC 6482, read-out: Minimum inhibitory concentration): 9.4 mg/L (≈ 35.2 µM)
- MIC (Haemophilus influenzae; UC6483, UC 6483, read-out: Minimum inhibitory concentration): 19 mg/L (≈ 71.1 µM)
- MIC (Klebsiella pneumoniae): 300 mg/L (≈ 1120 µM)
- MIC (Pseudomonas aeruginosa; UC6432, UC 6432, read-out: Minimum inhibitory concentration): > 600 mg/L
- MIC (Pseudomonas aeruginosa; UC6676, UC 6676, read-out: Minimum inhibitory concentration): > 600 mg/L
- MIC (Pseudomonas aeruginosa; UC6954, UC 6954, read-out: Minimum inhibitory concentration): > 600 mg/L
- MIC (Pseudomonas aeruginosa; UC6955, UC 6955, read-out: Minimum inhibitory concentration): 19 mg/L (≈ 71.1 µM)
- MIC (Pseudomonas aeruginosa; UC9027, UC 9027, read-out: Minimum inhibitory concentration): 37.5 mg/L (≈ 140 µM)
- MIC (Serratia marcescens): > 600 mg/L
- MIC (Staphylococcus aureus; UC76, UC 76, read-out: Minimum inhibitory concentration): 75 mg/L (≈ 281 µM)
- MIC (Staphylococcus aureus; UC3665, UC 3665, read-out: Minimum inhibitory concentration): 75 mg/L (≈ 281 µM)
- MIC (Staphylococcus aureus; UC6675, UC 6675, read-out: Minimum inhibitory concentration): 75 mg/L (≈ 281 µM)
- MIC (Staphylococcus aureus; UC6685, UC 6685, read-out: Minimum inhibitory concentration): 600 mg/L (≈ 2240 µM)
- MIC (Streptococcus faecalis): > 600 mg/L
- MIC (Streptococcus pneumoniae): > 600 mg/L
- MIC (Streptococcus pyogenes): > 600 mg/L
- Activity against various Gram-positive bacteria (Gram-positive bacteria): active
- Solubility (Solubilities; most organic solvents): soluble in most organic solvents
- Solubility (Solubilities; water): not soluble in water
